# Laboratory results: patent US20250101062A1, “ANTIMICROBIAL PEPTIDES” (Board of Regents of the University of Nebraska, priority 2023, published 2025)
# Like-named read-outs stand apart in the source and are kept apart here. Where a SMILES comes first, the peptide text is derived from it. Where no end group is shown, it is not given here.
# Tests used:
# [1] = tested on: E. coli; conditions: data from the antimicrobial peptide database; cited from earlier work
# [2] = tested on: K. pneumoniae E406-17; type: cell-based, Klebsiella pneumoniae
# Experimental: (§1) The following resistant bacterial clinical strains were used in this study: S. aureus USA300 LAC, S. epidermidis 1457, E. coli E423-17, P. aeruginosa E411-17, K. pneumoniae E406-17, and A. baumannii B28-16. While the S. aureus USA300 strain is methicillin-resistant, most of the Gram-negative bacteria contain extended-spectrum beta-lactamase and are resistant to beta-lactam antibiotics. Peptide activity against bacteria was tested using an established lab protocol (Mishra, et al. (2017) Acta Biomater., 49:316-328). In brief, a peptide concentration gradient with twofold dilution was made in the 96-well polystyrene microplate at 10 μL per well. Bacteria were grown to the exponential phase (i.e., optical density at 600 nm≈0.5), diluted to ˜10^5 CFU/mL in different percentages of MHB, TSB, or LB, and partitioned into the 96-well microplate at 90 μL per well. […] They were diluted with autoclaved distilled water to obtain different percentages. The microplates were incubated at 37° C. overnight and read on a ChroMate™ 4300 microplate reader at 600 nm (GMI, Ramsey, MN). The peptide concentration in the wells without bacterial growth is the MIC. As is the convention, MIC values were represented as ranges.
# (§2) Peptide activity against bacteria were tested using the CLSI standard procedure with minor modifications (Clinical and Laboratory Standards Institute (2018) Performance standards for antimicrobial susceptibility testing, 9th ed.; Mishra, et al. (2019) Proc. Natl. Acad. Sci., 116(27):13517-13522). In brief, a peptide concentration gradient with twofold dilution was made in the 96-well polystyrene microplate at 10 μL per well. Bacteria were grown to the exponential phase (i.e., optical density at 600 nm≈0.5), diluted to ˜10^5 CFU/mL in MHB, and partitioned into the 96-well microplate at 90 μL per well. The microplates were incubated at 37° C. overnight and read on a ChroMate® 4300 Microplate Reader at 600 nm (GMI, Ramsey, MN). The peptide concentration in the wells without bacterial growth is the minimal inhibitory concentration (MIC). As the convention, MIC values were represented as ranges.
# [3] = tested on: P. aeruginosa E411-17; test: microbe, parasite or virus in culture; type: cell-based, Pseudomonas aeruginosa; conditions: for MIC: read-out: Antimicrobial activity (MIC)
# Experimental: as §1
# (§3) For pH effects on peptide activity, the pH of the medium was adjusted to a targeted pH for the autoclave and then remeasured at room temperature. For salt and serum effects on peptide activity, stock NaCl solution or human serum was added to the media.
# as §2
# (§4) For pH effects on peptide activity, the pH of the medium was adjusted to a targeted pH for autoclave and then remeasured at room temperature. For salt and serum effects on peptide activity, stock NaCl solution or human serum were added to the media.
# [4] = tested on: A. baumannii B28-16; type: cell-based, Acinetobacter baumannii; conditions: B28-16
# Experimental: as §1, §2
# [5] = tested on: E. coli E423-17; type: cell-based, Escherichia coli
# Experimental: as §1, §3, §2, §4
# [6] = tested on: S. aureus USA300 LAC; test: microbe, parasite or virus in culture; type: cell-based, Staphylococcus aureus
# Experimental: as §1, §3, §2, §4
# [7] = Effect of MHB dilution on antibacterial activity of a panel of antibiotics; type: cell-based; conditions: MHB from 100 to 12.5%
# Experimental: FIGS. 2A-2D show biofilm disruption activity of human LL-37 (FIGS. 2A and 2B) and 17BIPHE2 (FIGS. 2C and 2D) against the 24 hour preformed biofilms of S. aureus USA300 LAC in different MHB media: 12.5% MHB (FIGS. 2A and 2C) and 100% MHB (FIGS. 2B and 2D). FIGS. 2E-2H show the treatment outcome of LL-37 (FIGS. 2E and 2F) and 17BIPHE2 (FIGS. 2G and 2H) against the 24-hour preformed biofilms of E. coli E423-17 in different MHB media: 12.5% MHB (FIGS. 2E and 2G) and 100% MHB (FIGS. 2F and 2H). […] Growth curves of S. aureus USA 300 LAC (FIGS. 2J-2K) and P. aeruginosa 152 (FIGS. 2L-2M) in 12.5%, 25%, 50% and 100% MHB or TSB medium (curves from bottom to top).
# The effects of MHB dilution on the antimicrobial activity of a panel of antibiotics was also compared (FIG. 2I).
# [8] = tested on: S. epidermidis 1457; test: microbe, parasite or virus in culture; type: cell-based, Staphylococcus epidermidis; conditions: read-out: Antimicrobial activity (MIC) S. epidermidis 1457
# Experimental: as §1, §2
# [9] = USA300, read-out: Antimicrobial activity (MIC)
# [10] = Staphylococcus aureus, MRSA / USA300, pH 6.3, MRSA in MHB, pH 6.3, read-out: Antimicrobial activity (MIC)
# [11] = Staphylococcus aureus, MRSA / USA300, pH 7.2, MRSA in MHB, pH 7.2, read-out: Antimicrobial activity (MIC)
compound,measurement,setting,value
GIWSSIKNLASKAWNSDIGQSLRNKAAGAINKFVADKIGVTPSQAAS (vaejovis mexicanus) [Vejovine],MIC against E. coli,[1],4.4 to 20 µM
KRWWQWWK-NH2 [W542],Activity (MIC) K. pneumoniae,[2],>32 µM
same,Activity (MIC) P. aeruginosa,[3]; E411-17,4 to 8 µM
GWLKKIGKKIERVGQHTRDATIQGLGIAQQAANVAATAR (Drosophila melanogaster) [Sarcotoxin IA],MIC against E. coli,[1],0.2 to 6.3 µg/mL
KRIVQRIK-NH2 [W538],Activity (MIC) A. baumannii,[4],>32 µM
same,Activity (MIC) E.coli,[5]; E423-17,>32 µM
same,Antimicrobial activity (MIC),[5]; E423-17,>64 µM
same,Antimicrobial activity (MIC),[5]; MHB 12.5%,8 µM
same,Activity (MIC) K. pneumoniae,[2],>32 µM
same,Activity (MIC) P. aeruginosa,[3]; E411-17,>32 µM
same,Antimicrobial activity (MIC),[6]; MHB 12.5%,> 64 µM
same,Activity (MIC) S. aureus,[6]; USA300,>32 µM
same,MIC,[6]; [9],>64 µM
NCC[C@H](O)C(=O)N[C@@H]1C[C@H](N)[C@@H](O[C@H]2O[C@H](CN)[C@@H](O)[C@H](O)[C@H]2O)[C@H](O)[C@H]1O[C@H]1O[C@H](CO)[C@@H](O)[C@H](N)[C@H]1O [Amikacin],change in MIC with dilution of MHB,[7],small changes in MIC values
same,change of MIC / activity,"[6]; MRSA in MHB, 10% human serum",fourfold
same,MIC,"[6]; Staphylococcus aureus, MRSA / USA300, MRSA in MHB, 20% serum, read-out: Antimicrobial activity (MIC)",32 to 64 µM
same,MIC,[6]; [10],32 µM
same,MIC,[6]; [11],8 µM
KRIVQRIKDFLR-NH2 (C-terminus assumed) [KR-12],Antimicrobial activity (MIC),[5]; MHB 100%,active
same,Antimicrobial activity (MIC),[6]; MHB 12.5%,active
same,Antimicrobial activity (MIC),[6]; MHB 100%,did not display any activity
same,Antimicrobial activity (MIC),[6]; USA300,4 to 8 µM
same,MIC,[6]; [9],4 µM
GGLKKLGKKLEGAGKRVFKASEKALPVVVGIKAIGK (listed as Aedes aegypti) [Aedesin],MIC against E. coli,[1],2 to 4 µg/mL
GVFDIIKGAGKQLIARAMGKIAEKVGLNKDGN (listed as Leptodactylus pustulatus) [Ocellatin-PT8],MIC against E. coli,[1],60 µM
RWKIFKRIEKVGRNVRDGVIKAGPAVAVLGQAKALGK (listed as Phyllodes eyndhovii) [Peyn-cec],MIC against E. coli,[1],8 µg/mL
KWKFGKKLERIGQNVFRAAEKVLPVATGYAQLPATLAGAKQG (listed as Panorpa sp.) [Pvul-cec],MIC against E. coli,[1],8 µg/mL
CN[C@H](CC(C)C)C(=O)N[C@H]1C(=O)N[C@@H](CC(N)=O)C(=O)N[C@H]2C(=O)N[C@H]3C(=O)N[C@H](C(=O)N[C@H](C(=O)O)c4cc(O)cc(O)c4-c4cc3ccc4O)[C@H](O)c3ccc(c(Cl)c3)Oc3cc2cc(c3O[C@@H]2O[C@H](CO)[C@@H](O)[C@H](O)[C@H]2O[C@H]2C[C@](C)(N)[C@H](O)[C@H](C)O2)Oc2ccc(cc2Cl)[C@H]1O [Vancomycin],change in MIC with dilution of MHB,[7],essentially no changes
same,MIC,"[6]; Staphylococcus aureus, MRSA / USA300, pH 6.3, read-out: Antimicrobial activity (MIC), MRSA in MHB, pH 6.3",0.5 µM
same,MIC,"[6]; Staphylococcus aureus, MRSA / USA300, pH 7.2, read-out: Antimicrobial activity (MIC), MRSA in MHB, pH 7.2",0.5 µM
same,MIC,"[6]; Staphylococcus aureus, MRSA / USA300, read-out: Antimicrobial activity (MIC), MRSA in MHB, 10% serum",0.5 µM
same,MIC,"[6]; Staphylococcus aureus, MRSA / USA300, read-out: Antimicrobial activity (MIC), MRSA in MHB, 20% serum",0.5 to 1 µM
same,MIC,"[6]; Staphylococcus aureus, MRSA / USA300, read-out: Antimicrobial activity (MIC), MRSA in MHB, NaCl (150 mM)",0.5 to 1 µM
RKSKEKIGK-NH2 (C-terminus assumed) [RK-9],Antimicrobial activity (MIC),[5]; E423-17,>64 µM
same,MIC,[6]; [9],>64 µM
NC[C@H]1O[C@H](O[C@H]2[C@H](O)[C@@H](O[C@H]3O[C@H](CO)[C@@H](O)[C@H](N)[C@H]3O)[C@H](N)C[C@@H]2N)[C@H](N)C[C@@H]1O [Tobramycin],change in MIC with dilution of MHB,[7],essentially no changes
same,MIC,"[6]; Staphylococcus aureus, MRSA / USA300, MRSA in MHB, 10% serum, read-out: Antimicrobial activity (MIC)",2 to 4 µM
same,MIC,[6]; [10],4 µM
same,MIC,[6]; [11],2 µM
LRNLVPRTES-NH2 (C-terminus assumed) [LR-10],Antimicrobial activity (MIC),[5]; E423-17,>64 µM
same,MIC,[6]; [9],>64 µM
"FKRIVQRIKDFLRNLV [FK-16, reference compound]",Antimicrobial activity (MIC),[5]; MHB 12.5%,active
same,Antimicrobial activity (MIC),[5]; MHB 100%,active
same,Antimicrobial activity (MIC),[6]; MHB 12.5%,active
same,Antimicrobial activity (MIC),[6]; MHB 100%,active
KEKIGKEFKR-NH2 (C-terminus assumed) [KE-10],Antimicrobial activity (MIC),[5]; E423-17,>64 µM
same,MIC,[6]; [9],>64 µM
KRIWQRIK-NH2 [W539],Activity (MIC) A. baumannii,[4],>32 µM
same,Activity (MIC) E.coli,[5]; E423-17,>32 µM
same,Activity (MIC) K. pneumoniae,[2],>32 µM
same,Activity (MIC) P. aeruginosa,[3]; E411-17,>32 µM
same,Activity (MIC) S. aureus,[6]; USA300,>32 µM
"CCCCCCCCCC(=O)N[C@H](CCCCN)C(=O)N[C@H](CCCNC(=N)N)C(=O)N[C@@H](C(=O)N[C@@H](C(=O)N[C@H](CCC(N)=O)C(=O)N[C@H](CCCNC(=N)N)C(=O)N[C@@H](C(=O)N[C@H](CCCCN)C(N)=O)[C@H](C)CC)C(C)C)[C@H](C)CC [C10-KR8, reference compound] (HELM PEPTIDE1{[CCCCCCCCCC(=O)[*:2]].[dK].[dR].[dI].[dV].[dQ].[dR].[dI].[dK].[am]}$$$$V2.0; N-terminus and C-terminus assumed)",Antimicrobial activity (MIC) A. baumannii B28-16,[4],4 µM
same,Antimicrobial activity (MIC) E. coli E423-17,[5]; E423-17,8 µM
same,Antimicrobial activity (MIC) P. aeruginosa E411-17,[3]; E411-17,8 µM
same,MIC,"[3]; E411-17, pH 6.21",16 µM
same,Antimicrobial activity (MIC),"[3]; E411-17, pH 7.22",4 to 8 µM
same,MIC,"[3]; E411-17, pH 8.13",4 µM
same,MIC,[3]; E411-17,16 µM
same,MIC,[8],4 µM
same,MIC,"[6]; USA300, pH 6.21, read-out: Antimicrobial activity (MIC)",8 µM
same,MIC,"[6]; USA300, pH 7.22, read-out: Antimicrobial activity (MIC)",4 µM
same,MIC,"[6]; USA300, pH 8.13, read-out: Antimicrobial activity (MIC)",2 µM
same,MIC,[6]; [9],4 µM
same,MIC,"[6]; USA300, read-out: Antimicrobial activity (MIC) S. aureus USA300",4 µM
KRWWQRWK-NH2 [W541],Activity (MIC) A. baumannii,[4],>32 µM
same,Activity (MIC) E.coli,"[5]; KR-8 series, Table 3",8 µM
same,Activity (MIC) K. pneumoniae,[2],>32 µM
same,Activity (MIC) P. aeruginosa,[3]; E411-17,>32 µM
same,Activity (MIC) S. aureus,[6]; USA300,>32 µM
NGNLLGGLLRPVLGVVKGLTGGLGKK (Pleurodema thaul) [Thaulin-1],MIC against E. coli,[1],62.5 µg/mL
RWKFGKKLERMGKRIFKATEKGLPVATGVAALARG (Tunga penetrans) [Tpen-cec],MIC against E. coli,[1],8 µg/mL
RWKIFKKIEKVGQNIRDGIVKAGPAVAVVGQAATI (listed as Bombyx mori) [CM4],MIC against E. coli,[1],12 µM
LLGDFFRKSK-NH2 (C-terminus assumed) [LL-10],MIC,[6]; [9],>64 µM
SWLSKTAKKLENSAKKRIAEGIAIAIQGGPR (listed as Anisakis sp.) [Anisaxin-3],MIC against E. coli,[1],0.5 to 1.0 µM
